Laboratory results: patent US20180250403A1, “CONJUGATES” (AGENCY FOR SCIENCE, TECHNOLOGY AND RESEARCH, priority 2015, published 2018)

System: B16F10 cells
Assay: Cell proliferation / cytotoxicity (Incucyte) with and without light irradiation
Format: cell-based, murine
Details: B16F10, 10 uM
Protocol: Murine melanoma B16F10 cells were seeded at 3000-4000 cells per well in 96 well black view plate Perkin Elmer plates in DMEM media without phenol, as phenol red may interfere in the absorption of light. After overnight incubation, media was aspirated from the wells and varying concentrations of photosensitizers were added to the cells. Cells were incubated for 4 hours in dark at 37° C., after 4 hours cells were washed twice with 1×PBS and 300 μL of media was added to the wells before placing the plates in Incucyte ZOOM Live cell imaging machine to capture the images after every hour. Percentage confluence was measured over a time period. Similar approach was taken for keratinocyte cell lines NTERT-1 except the starting confluence was 75-85%. This is to mimic the physiological situation in the body where keratinocytes are present in much larger numbers than melanocytes. […]
Mouse melanoma cells B16-F10, human skin keratinocytes N-TERT-1 and primary human melanocytes MeL at cell densities of 4000 cells/well, 6000 cells/well and 3500 cells/well respectively were seeded to achieve similar starting confluence in 96-black Perkin-Elmer well plate in DMEM medium without phenol red (for B16F10 and MeL) and KSFM media (for N/TERT-1 cells) and kept for overnight at 37° C. […] Percentage confluence was measured over a time period. […]

## CN(C)c1ccc2nc3ccc(=[N+](C)C)cc-3sc2c1 [MB, methylene blue]
  cytotoxicity in dark: no cytotoxicity
